Drawing on paper PMC6934184, “Selective DNA-PKcs inhibition extends the therapeutic index of localized radiotherapy and chemotherapy” (The Journal of Clinical Investigation, 2019), this text covers inhibition for 1 compound.

The target in this assay is T1, ICK (Homo sapiens, UniProt Q9UPZ9).
T1 construct: purchased Thermo Fisher Scientific (Life Technologies) SelectScreen
Briefly: SelectScreen LanthaScreen. The format is binding. Conditions: read-out: % displacement. The essentials: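 NU5455 was profiled across the SelectScreen Broad panel of kinase activity and binding assays. Z'LYTE reactions such as CSF1R ran at apparent Km ATP, while the Adapta CAMK1 assay used ATP listed as 10. Values are given as percent.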

T1 sequence (Q9UPZ9 whole entry): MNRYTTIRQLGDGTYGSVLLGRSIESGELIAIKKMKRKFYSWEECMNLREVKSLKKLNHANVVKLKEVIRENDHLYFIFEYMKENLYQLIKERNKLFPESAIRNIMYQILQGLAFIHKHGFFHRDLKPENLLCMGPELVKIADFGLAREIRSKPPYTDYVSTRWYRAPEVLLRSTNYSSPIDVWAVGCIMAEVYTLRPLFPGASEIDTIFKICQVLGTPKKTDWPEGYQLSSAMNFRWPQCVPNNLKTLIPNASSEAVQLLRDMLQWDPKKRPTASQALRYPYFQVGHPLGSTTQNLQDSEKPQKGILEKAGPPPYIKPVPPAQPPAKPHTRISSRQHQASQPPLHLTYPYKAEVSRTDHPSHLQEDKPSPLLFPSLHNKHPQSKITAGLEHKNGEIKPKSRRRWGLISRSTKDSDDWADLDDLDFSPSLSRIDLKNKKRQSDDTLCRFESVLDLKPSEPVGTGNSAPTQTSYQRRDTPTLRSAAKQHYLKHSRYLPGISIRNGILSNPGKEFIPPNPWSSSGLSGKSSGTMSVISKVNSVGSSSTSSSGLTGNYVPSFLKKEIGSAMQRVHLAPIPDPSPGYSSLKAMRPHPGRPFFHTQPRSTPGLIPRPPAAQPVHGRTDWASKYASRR

As for `CN(C(=O)CN1CCOCC1)c1ccc2sc3c(-c4cccc5c(=O)cc(N6CC7CCC(C6)O7)oc45)cccc3c2c1` [NU5455], the inhibition at 1 µM stood at 0%.
